According to patent US12331026B2 (NiKang Therapeutics, Inc., priority 2022, dated 2025):

The compounds below were run against T1, CDK2 (Homo sapiens, UniProt P24941) (assay: Phospho-RB measurement in OVCAR3 cells (HTRF phospho-RB S807/811)). Settings: phosphorylation of RB protein at S807/811, HTRF, 24 h compound treatment, 0.3 to 10,000 nM, read-out: pRb (uM).
T1 construct: endogenous in cells; host or cells: OVCAR3 cells
Type: cell-based
How it was run: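 IC50 values come from four-parameter logistic fits of the DMSO-normalised 665/620 nm TR-FRET ratio for phospho-RB (S807/811). Antibody detection ran 4 h at room temperature.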

Question: With O=S1(=O)CC2C(C1)C2Nc1nccc(-c2sc(N3C4CCC3COC4)nc2-c2cccc(NS(=O)(=O)c3c(F)cccc3C(F)(F)F)c2F)n1 (stereo not drawn) [Example 112, N-(3-(2-(3-oxa-8-azabicyclo[3.2.1]octan-8-yl)-5-(2-((3,3-dioxido-3-thiabicyclo[3.1.0]hexan-6-yl)amino)pyrimidin-4-yl)thiazol-4-yl)-2-fluorophenyl)-2-fluoro-6-(trifluoromethyl)benzenesulfonamide] as the compound, how does the IC50 read?
Answer: 0.03 µM

Question: How did the IC50 turn out when CC1CC(C)N1c1nc(-c2cccc(NS(=O)(=O)c3c(F)cccc3F)c2F)c(-c2ccnc(NC3CC4(C3)CS(=O)(=O)C4)n2)s1 (stereo not drawn) [Example 71, N-(3-(2-(2,4-dimethylazetidin-1-yl)-5-(2-((2,2-dioxido-2-thiaspiro[3.3]heptan-6-yl)amino)pyrimidin-4-yl)thiazol-4-yl)-2-fluorophenyl)-2,6-difluorobenzenesulfonamide] was run?
Answer: 18.9 µM

Question: Which IC50 does the source give for O=S1(=O)C[C@@H]2[C@H](C1)[C@@H]2Nc1nccc(-c2sc(N3C4CCC3CN(C3CC(F)(F)C3)C4)nc2-c2cccc(NS(=O)(=O)c3c(F)cccc3F)c2F)n1 [Example 94, N-(3-(2-(3-(3,3-difluorocyclobutyl)-3,8-diazabicyclo[3.2.1]octan-8-yl)-5-(2-(((1R,5S,6s)-3,3-dioxido-3-thiabicyclo[3.1.0]hexan-6-yl)amino)pyrimidin-4-yl)thiazol-4-yl)-2-fluorophenyl)-2,6-difluorobenzenesulfonamide] here?
Answer: 0.28 µM

Question: CC1(c2nc(-c3cccc(NS(=O)(=O)c4c(F)cccc4F)c3F)c(-c3ccnc(NC4CC5(C4)CS(=O)(=O)C5)n3)s2)CCNCC1 [Example 14, N-(3-(5-(2-((2,2-dioxido-2-thiaspiro[3.3]heptan-6-yl)amino)pyrimidin-4-yl)-2-(4-methylpiperidin-4-yl)thiazol-4-yl)-2-fluorophenyl)-2,6-difluorobenzenesulfonamide] was tested. Which IC50 did it give?
Answer: 18.1 µM

Question: How did the IC50 turn out when O=S1(=O)C[C@@H]2[C@H](C1)[C@H]2Nc1nccc(-c2sc(C3(C(F)F)CC3)nc2-c2cccc(NS(=O)(=O)c3c(F)cccc3C(F)(F)F)c2F)n1 [Example 72, N-(3-(2-(1-(difluoromethyl)cyclopropyl)-5-(2-(((1R,5S,6r)-3,3-dioxido-3-thiabicyclo[3.1.0]hexan-6-yl)amino)pyrimidin-4-yl)thiazol-4-yl)-2-fluorophenyl)-2-fluoro-6-(trifluoromethyl)benzenesulfonamide] was run?
Answer: 0.061 µM

Question: How did the IC50 turn out when C[C@@H]1CN(C)C[C@@H](C)N1c1nc(-c2cccc(NS(=O)(=O)c3c(F)cccc3F)c2F)c(-c2ccnc(NC3CC4(C3)CS(=O)(=O)C4)n2)s1 [Example 60, N-(3-(5-(2-((2,2-dioxido-2-thiaspiro[3.3]heptan-6-yl)amino)-pyrimidin-4-yl)-2-((2R,6R)-2,4,6-trimethylpiperazin-1-yl)thiazol-4-yl)-2-fluorophenyl)-2,6-difluorobenzenesulfonamide] was run?
Answer: 0.9 µM

Question: CC1(C)CCN1c1nc(-c2cccc(NS(=O)(=O)c3c(F)cccc3C(F)(F)F)c2F)c(-c2ccnc(N[C@@H]3[C@@H]4CS(=O)(=O)C[C@@H]43)n2)s1 [Example 120, N-(3-(2-(2,2-dimethylazetidin-1-yl)-5-(2-(((1R,5S,6s)-3,3-dioxido-3-thiabicyclo[3.1.0]hexan-6-yl)amino)pyrimidin-4-yl)thiazol-4-yl)-2-fluorophenyl)-2-fluoro-6-(trifluoromethyl)benzenesulfonamide] was tested. Which IC50 did it give?
Answer: 0.29 µM

Question: How did the IC50 turn out when O=S1(=O)CC2C(C1)C2Nc1nccc(-c2sc(C34CC(C3)C4)nc2-c2cccc(NS(=O)(=O)c3c(F)cccc3F)c2F)n1 (stereo not drawn) [Example 93, N-(3-(2-(bicyclo[1.1.1]pentan-1-yl)-5-(2-((3,3-dioxido-3-thiabicyclo[3.1.0]hexan-6-yl)amino)pyrimidin-4-yl)thiazol-4-yl)-2-fluorophenyl)-2,6-difluorobenzenesulfonamide] was run?
Answer: 0.04 µM

Question: With O=S1(=O)C[C@@H]2[C@H](C1)[C@H]2Nc1nccc(-c2sc(C34CC(C3)C4)nc2-c2cccc(NS(=O)(=O)c3c(OC(F)F)cccc3C(F)(F)F)c2F)n1 [Example 125, N-(3-(2-(bicyclo[1.1.1]pentan-1-yl)-5-(2-(((1R,5S,6r)-3,3-dioxido-3-thiabicyclo[3.1.0]hexan-6-yl)amino)pyrimidin-4-yl)thiazol-4-yl)-2-fluorophenyl)-2-(difluoromethoxy)-6-(trifluoromethyl)-benzenesulfonamide] as the compound, how does the IC50 read?
Answer: 4.51 µM

Question: With O=S1(=O)CC2(CC(Nc3nccc(-c4sc(C56CC(C(F)(F)F)(C5)C6)nc4-c4cccc(NS(=O)(=O)c5c(F)cccc5C(F)(F)F)c4F)n3)C2)C1 [Example 88, N-(3-(5-(2-((2,2-dioxido-2-thiaspiro[3.3]heptan-6-yl)amino)-pyrimidin-4-yl)-2-(3-(trifluoromethyl)bicyclo[1.1.1]pentan-1-yl)thiazol-4-yl)-2-fluorophenyl)-2-fluoro-6-(trifluoromethyl)-benzenesulfonamide] as the compound, how does the IC50 read?
Answer: 0.09 µM

Question: How did the IC50 turn out when O=S1(=O)CC2(CC(Nc3nccc(-c4sc(C56CCC(C5)C6)nc4-c4cccc(NS(=O)(=O)c5c(F)cccc5F)c4F)n3)C2)C1 [Example 20] was run?
Answer: 0.24 µM

Question: O=S1(=O)CC2(CC(Nc3nccc(-c4sc(C56CCC(CC5)C6)nc4-c4cccc(NS(=O)(=O)c5c(F)cccc5F)c4F)n3)C2)C1 [Example 9, N-(3-(2-(bicyclo[2.2.1]heptan-1-yl)-5-(2-((2,2-dioxido-2-thiaspiro[3.3]heptan-6-yl)amino)pyrimidin-4-yl)thiazol-4-yl)-2-fluorophenyl)-2,6-difluorobenzenesulfonamide] was tested. Which IC50 did it give?
Answer: 0.1 µM

Question: For CN1CC2CCC(C1)N2c1nc(-c2cccc(NS(=O)(=O)c3c(OC(F)F)cccc3C(F)(F)F)c2F)c(-c2ccnc(NC3CC4(C3)CS(=O)(=O)C4)n2)s1 [Example 75, 2-(difluoromethoxy)-N-(3-(5-(2-((2,2-dioxido-2-thiaspiro[3.3]heptan-6-yl)amino)pyrimidin-4-yl)-2-(3-methyl-3,8-diazabicyclo[3.2.1]octan-8-yl)thiazol-4-yl)-2-fluorophenyl)-6-(trifluoromethyl)benzenesulfonamide], which IC50 is on record?
Answer: 0.85 µM

Question: C[C@@H]1COC[C@@H](C)N1c1nc(-c2cccc(NS(=O)(=O)c3c(F)cccc3F)c2F)c(-c2ccnc(NC3CC4(C3)CS(=O)(=O)C4)n2)s1 [Example 56, N-(3-(2-((3R,5R)-3,5-dimethylmorpholino)-5-(2-((2,2-dioxido-2-thiaspiro[3.3]heptan-6-yl)amino)pyrimidin-4-yl)thiazol-4-yl)-2-fluorophenyl)-2,6-difluorobenzenesulfonamide] was tested. Which IC50 did it give?
Answer: 0.11 µM

Question: Which IC50 does the source give for C[C@@H]1CNC[C@@H](C)N1c1nc(-c2cccc(NS(=O)(=O)c3c(F)cccc3F)c2F)c(-c2ccnc(NC3CC4(C3)CS(=O)(=O)C4)n2)s1 [Example 59, N-(3-(2-((2R,6R)-2,6-dimethylpiperazin-1-yl)-5-(2-((2,2-dioxido-2-thiaspiro[3.3]heptan-6-yl)amino)pyrimidin-4-yl)thiazol-4-yl)-2-fluorophenyl)-2,6-difluorobenzenesulfonamide] here?
Answer: 3.01 µM

Question: How did the IC50 turn out when C[C@H]1CNC[C@H](C)N1c1nc(-c2cccc(NS(=O)(=O)c3c(F)cccc3F)c2F)c(-c2ccnc(NC3CC4(C3)CS(=O)(=O)C4)n2)s1 [Example 62, N-(3-(2-((2S,6S)-2,6-dimethylpiperazin-1-yl)-5-(2-((2,2-dioxido-2-thiaspiro[3.3]heptan-6-yl)amino)pyrimidin-4-yl)thiazol-4-yl)-2-fluorophenyl)-2,6-difluorobenzenesulfonamide] was run?
Answer: 3.86 µM

Question: How did the IC50 turn out when O=S1(=O)CC2(CC(Nc3nccc(-c4sc(C56CC7CC(CC(C7)C5)C6)nc4-c4cccc(NS(=O)(=O)c5c(F)cccc5F)c4F)n3)C2)C1 [Example 6, N-(3-(2-((3r,5r,7r)-adamantan-1-yl)-5-(2-((2,2-dioxido-2-thiaspiro[3.3]heptan-6-yl)amino)pyrimidin-4-yl)thiazol-4-yl)-2-fluorophenyl)-2,6-difluorobenzenesulfonamide] was run?
Answer: 0.08 µM

Question: O=S1(=O)CC2(CC(Nc3nccc(-c4sc(N5C6CCC5CN(C5CC(F)(F)C5)C6)nc4-c4cccc(NS(=O)(=O)c5c(F)cccc5C(F)(F)F)c4F)n3)C2)C1 [Example 149, N-(3-(2-(3-(3,3-difluorocyclobutyl)-3,8-diazabicyclo[3.2.1]octan-8-yl)-5-(2-((2,2-dioxido-2-thiaspiro[3.3]heptan-6-yl)amino)pyrimidin-4-yl)thiazol-4-yl)-2-fluorophenyl)-2-fluoro-6-(trifluoromethyl)benzenesulfonamide] was tested. Which IC50 did it give?
Answer: 0.09 µM

Question: O=S1(=O)CC2(CC(Nc3nccc(-c4sc(N5C6CCC5CN(C5CC5)C6)nc4-c4cccc(NS(=O)(=O)c5c(F)cccc5C(F)(F)F)c4F)n3)C2)C1 [Example 82, N-(3-(2-(3-cyclopropyl-3,8-diazabicyclo[3.2.1]octan-8-yl)-5-(2-((2,2-dioxido-2-thiaspiro[3.3]heptan-6-yl)amino)pyrimidin-4-yl)thiazol-4-yl)-2-fluorophenyl)-2-fluoro-6-(trifluoromethyl)benzenesulfonamide] was tested. Which IC50 did it give?
Answer: 0.13 µM

Question: With O=S1(=O)C[C@@H]2[C@H](C1)[C@H]2Nc1nccc(-c2sc(C34CC(C3)C4)nc2-c2cccc(NS(=O)(=O)c3c(F)cccc3OC(F)F)c2F)n1 [Example 113, N-(3-(2-(bicyclo[1.1.1]pentan-1-yl)-5-(2-(((1R,5S,6r)-3,3-dioxido-3-thiabicyclo[3.1.0]hexan-6-yl)amino)pyrimidin-4-yl)thiazol-4-yl)-2-fluorophenyl)-2-(difluoromethoxy)-6-fluorobenzenesulfonamide] as the compound, how does the IC50 read?
Answer: 0.07 µM

Question: Which IC50 does the source give for O=S1(=O)CC2(CC(Nc3nccc(-c4sc(C56CC(C(F)F)(C5)C6)nc4-c4cccc(NS(=O)(=O)c5c(F)cccc5C(F)(F)F)c4F)n3)C2)C1 [Example 92, N-(3-(2-(3-(difluoromethyl)bicyclo[1.1.1]pentan-1-yl)-5-(2-((2,2-dioxido-2-thiaspiro[3.3]heptan-6-yl)amino)pyrimidin-4-yl)thiazol-4-yl)-2-fluorophenyl)-2-fluoro-6-(trifluoromethyl)benzenesulfonamide] here?
Answer: 0.04 µM
